Experiments:
cloned GLP-1 receptor = conditions: transfected cells; cited from earlier work
MI-induced rat model [1] = test: Treadmill test, plasma lactate and insulin sensitivity in rats after myocardial infarction; assay type: in vivo, Sprague-Dawley rats
MI-induced rat model [2] = test: Whole body composition, heart, lung weight and infarct size in rats with CHF after LAD ligation; assay type: in vivo, Sprague-Dawley rats; conditions: for B.W / Fat mass / Fluid mass / Infarct size / LV weight / LV weight/B.W. / Lean mass / Lung weight / Lung weight/B.W. / RV weight / RV weight/B.W.: 13th week of MI, mean ± SEM
Procedure: (§1) Male Sprague-Dawley® rats (250-300 g) are anesthetized by using 5% isoflurane and a left thoracotomy was performed. The left main anterior descending artery (LAD) was ligated to induce myocardial infarction. In addition, sham animals (n=10) were subjected to the same surgical procedure without ligation of the LAD.
(§2) After two weeks, rats were treated with 2.5 pmol/kg/min GLP-1 (n=11) (GLPL), 25 pmol/kg/min GLP-1 (n=12) (GLPH), 1.67 pmol/kg/min an exendin agonist, AC3174, (n=12) (AC3174L), 5 pmol/kg/min exendin agonist (n=7) (AC3174H), or vehicle (n=14) via subcutaneous infusion for 11 weeks. Echocardiography was performed at the 3rd, 5th, 9th, and 13th week of myocardial infarction. Left ventricular (LV) end systolic dimension (ESD) and diastolic dimension (EDD), LV systolic volume and diastolic volume, left atrial volume were recorded. At the 13th week of MI, the hearts were excised, the LV mass were weighed and LV mass/body weight ratio was determined.

MI-induced rat model [3] = test: Echocardiography and cardiac function (E/A ratio, LVEDP, cardiac output, +dp/dtmax, LV dimensions) in rats after myocardial infarction; assay type: in vivo, Sprague-Dawley rats
Procedure: as §1, §2

[4] = GLPH: GLP-1 25 pmol/kg/min s.c. infusion 11 weeks
[5] = GLPL: GLP-1 2.5 pmol/kg/min s.c. infusion 11 weeks

Substance: exendin[9-39]: truncated exendin peptide, a carboxyamidated molecule, antagonist of GLP-1
- action at the cloned GLP-1 receptor (cAMP) (cloned GLP-1 receptor): antagonist

Substance: GLP-1 (7-36) amide
- effect on exercise capacity (EC) (MI-induced rat model [1]; at each dose, treadmill test): significantly improved
- effect on exercise efficiency (EC/VO2) (MI-induced rat model [1]; at each dose, treadmill test): significantly improved
- effect on baseline plasma lactate (MI-induced rat model [1]; chronic treatment): attenuated
- effect on exercise capacity/peak lactate ratio (MI-induced rat model [1]; chronic treatment): improved
- effect on insulin sensitivity (MI-induced rat model [1]; chronic treatment): improved
- reduction of infarct size compared to the control group (MI-induced rat model [2]; 25 pmol/kg/min s.c. infusion, p<0.05): 30%
- B.W (MI-induced rat model [2]; [4]): 518 ± 12 g
- Fat mass (MI-induced rat model [2]; [4]): 51 ± 9 g
- Fluid mass (MI-induced rat model [2]; [4]): 331 ± 15 g
- Infarct size (MI-induced rat model [2]; [4]): 29 ± 2%
- LV weight (MI-induced rat model [2]; [4]): 1.13 ± 0.03 g
- LV weight/B.W. (MI-induced rat model [2]; [4]): 0.22 ± 0.01 %
- Lean mass (MI-induced rat model [2]; [4]): 35 ± 2 g
- Lung weight (MI-induced rat model [2]; [4]): 1.66 ± 0.13 g
- Lung weight/B.W. (MI-induced rat model [2]; [4]): 0.32 ± 0.02 %
- RV weight (MI-induced rat model [2]; [4]): 0.23 ± 0.01 g
- RV weight/B.W. (MI-induced rat model [2]; [4]): 0.04 ± 0.00 %
- B.W (MI-induced rat model [2]; [5]): 523 ± 14 g
- Fat mass (MI-induced rat model [2]; [5]): 45 ± 6 g
- Fluid mass (MI-induced rat model [2]; [5]): 332 ± 11 g
- Infarct size (MI-induced rat model [2]; [5]): 30 ± 2%
- LV weight (MI-induced rat model [2]; [5]): 1.26 ± 0.05 g
- LV weight/B.W. (MI-induced rat model [2]; [5]): 0.24 ± 0.01%
- Lean mass (MI-induced rat model [2]; [5]): 37 ± 2 g
- Lung weight (MI-induced rat model [2]; [5]): 1.94 ± 0.35 g
- Lung weight/B.W. (MI-induced rat model [2]; [5]): 0.37 ± 0.07%
- RV weight (MI-induced rat model [2]; [5]): 0.22 ± 0.01 g
- RV weight/B.W. (MI-induced rat model [2]; [5]): 0.04 ± 0.00 %
- effect on LV weight (summary) (MI-induced rat model [2]; chronic treatment): attenuated
- effect on infarction size (summary) (MI-induced rat model [2]; chronic treatment): reduced
- effect on the increase of E/A ratio during CHF progression (MI-induced rat model [3]; at each dose, s.c. infusion 11 weeks, 13 weeks after MI, vs control (+116% vs sham)): prevented increases
- effect on enlargement of LV chamber (MI-induced rat model [3]; chronic treatment): slowed
- effect on cardiac output (MI-induced rat model [3]; s.c. infusion 11 weeks, control reduced by 19% vs sham): normalized
- effect on contractility (+dp/dtmax) (MI-induced rat model [3]; s.c. infusion 11 weeks, control reduced by 24% vs sham): normalized
- effect on remodeling (LV mass, LV end diastolic dimension and systolic dimension increase) (MI-induced rat model [3]; s.c. infusion 11 weeks, progression of CHF): significantly reduced
- effect on LV end diastolic pressure (LVEDP) elevation (MI-induced rat model [3]; s.c. infusion 11 weeks, vehicle group +97% vs sham): eliminated

Reference: US8946149B2, “Use of exendin and analogs thereof to delay or prevent cardiac remodeling” (Amylin Pharmaceuticals, LLC, priority 2005, dated 2015)
